Source: the NIST ThermoML archive (doi:10.1021/acs.jced.8b00064)

What was measured:
[1] = for vapor or sublimation pressure: Liquid, Closed cell (Static) method
[2] = molar heat capacity at constant pressure; settings: 101.33 kPa, Crystal, DSC
[3] = Molar enthalpy of transition or fusion; settings: Crystal; DSC

CCCCO [butan-1-ol]
[1]
Settings | vapor or sublimation pressure [kPa]
333.2 K | 8.1
348.2 K | 17.5

O=C(O)CC(O)(CC(=O)O)C(=O)O [citric acid]
[2]
Settings | molar heat capacity at constant pressure [J/K/mol]
324.9 K | 239.8
328.2 K | 243
331.5 K | 245.9
334.9 K | 248.6
338.2 K | 251.2
341.5 K | 253.6
344.9 K | 255.9
348.2 K | 258.2
351.5 K | 260.4
354.9 K | 262.5
358.2 K | 264.6
361.5 K | 266.6
364.9 K | 268.7
368.2 K | 270.7
371.5 K | 272.6
374.9 K | 274.5
378.2 K | 276.2
381.5 K | 278.1
384.9 K | 279.9
388.2 K | 281.8
391.5 K | 283.7
394.9 K | 286

Settings | Normal melting temperature [°C]
[1], Crystal, DTA | 151.8

Settings | Molar enthalpy of transition or fusion [kcal/mol]
[3] | 14.1
